# Assay results reported in PMC12130509, “Development of a small compound that regulates the function of a maltodextrin-binding protein of Streptococcus pyogenes by multifaceted screenings” (Scientific Reports, 2025).
# Columns and labels:
# SPs0871 [1] = target: T1, SPs0871 (Streptococcus pyogenes, UniProt A0A0H2UUQ6); experiment: MST binding analysis; conditions: for concentration-dependent response by MST: 15.3 nM to 500 µM compound; for concentration-dependent response by MST / Kd: 100 nM SPs0871; for Kd: read-out: KD values calculated by MST analysis
# T1 sequence (A0A0H2UUQ6 entry or part of it): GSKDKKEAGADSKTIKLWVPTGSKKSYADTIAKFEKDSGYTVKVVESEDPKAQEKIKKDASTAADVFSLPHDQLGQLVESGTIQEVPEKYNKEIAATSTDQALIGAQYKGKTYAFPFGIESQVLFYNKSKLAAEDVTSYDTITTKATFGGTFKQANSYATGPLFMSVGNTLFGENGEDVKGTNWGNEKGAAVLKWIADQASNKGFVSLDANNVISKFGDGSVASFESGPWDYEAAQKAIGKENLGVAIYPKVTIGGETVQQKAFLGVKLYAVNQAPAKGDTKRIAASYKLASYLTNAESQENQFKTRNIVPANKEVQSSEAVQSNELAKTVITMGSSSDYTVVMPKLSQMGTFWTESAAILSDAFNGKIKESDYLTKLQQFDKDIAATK
# Procedure: (§1) MST was performed on a Monolith NT.115 instrument using Monolith NT.115 Series, Premium Capillaries, and His-tagged SPs0871 was labeled using the Monolith His-Tag Labeling Kit RED-Tris-NTA 2nd Generation (NanoTemper Technologies GmbH, Munich, Germany). The final concentration of SPs0871 was 100 nM, and the final concentration of the dye was 5 nM. The buffer was PBS-T (PBS, 0.005% Tween 20), 5% DMSO. A range of concentrations of compounds (15.3 nM to 500 µM) was tested.
# S. pyogenes strain JRS4 = experiment: Growth assay in CDM supplemented with maltotetraose, JRS4; type: cell-based, Streptococcus pyogenes; conditions: for GAS growth: 0.5% maltotetraose, 1% DMSO, OD600
# Procedure: (§2) Bacteria were incubated in a carbohydrate-free chemically defined medium (CDM) supplemented with maltotetraose, which is thought to be taken up only via the SPs0871 pathway. […] Further, we also evaluated the antibacterial effect of 95,186 against SSI-1 strain, which is isolated from a STSS patient.
# (§3) JRS4 and SSI-1 were used as GAS strains. The medium used as well as the procedure up to the assay were the same as previously described. […] For SSI-1, an additional 0.1% glucose was added to the CDM medium containing maltotetraose. To confirm the bacteriostatic effect of compound 95,186, the bacterial culture incubated in CDM was inoculated into THY medium to achieve a final OD600 value of 0.01.
# SPs0871 [2] = target: T1, SPs0871; experiment: SPR analysis of binding to immobilized SPs0871 (Biacore T200); conditions: for concentration-dependent response by SPR (derivatives, cross-validation): 3.125–200 µM
# Procedure: The binding of maltotriose and compound derivatives to SPs0871 was assessed using a Biacore T200 instrument (Cytiva, Marlborough, MA, USA). SPs0871 was immobilized at 4300–4700 RU on the surface of a CM5 sensor chip (Cytiva) by the amine-coupling method according to the manufacturer’s instructions. The running buffer was phosphate buffered saline with Tween (PBS, 0.005% Tween 20), 5% DMSO. To measure the interaction of maltotriose with SPs0871, a range of concentrations of maltotriose (0.039–20 µM) were injected at a flow rate of 30 μL min^–1 with a 20 s association time and a 40 s dissociation time. To measure the interaction of compound derivatives with SPs0871, a range of concentrations of compound derivatives (3.125–200 µM) were injected at a flow rate of 30 μL min^–1 with a 20 s association time and a 40 s dissociation time. Data analysis was carried out using BIAevaluation software (Cytiva, version ver3.2.1, https://www.cytivalifesciences.com/ja/jp/support/software/biacore-downloads?_gl=1*18vz87l*_gcl_au*MjA3MjI1ODE4Ni4xNzQyOTU1NzY3*_ga*OTQ5NDM5MTMyLjE3NDI5NTU3Njg.*_ga_CS9H0CZBWW*MTc0NDQ0NjkwMy41LjEuMTc0NDQ0ODAwNC4wLjAuMA.). The KDs of the interactions were calculated from Scatchard plots.
# MalE1 = experiment: MST analysis of bacterial species specificity; type: binding, L. casei
# Source text: Finally, to gain an insight into the specificity of the three compounds for bacterial species, we prepared MalE1 from L. casei as a recombinant protein and used MST to assess the binding of compounds 95,186, 95186b, and 95186c to MalE1.
# (§4) The SPs0871 (including mutants) gene fragment encoding amino acids 27–415 was cloned into Escherichia coli expression vector pCold I (for MST) or pCold SUMO, in which the His6-SUMO-tag was introduced into the pCold I vector (Takara, Shiga, Japan). The same process was performed for MalE1 derived from the L. casei gene fragment encoding amino acids 28–410. The recombinant protein was expressed and purified as previously described.
# as §1
# SPs0871 [3] = target: T1, SPs0871; experiment: DSF, melting temperature of SPs0871; type: binding
# Source text: In the subsequent DSF screening, we measured the Tm value of SPs0871 in the presence of each compound. We also evaluated the structural stabilizing effect of each compound by binding it to SPs0871, which reflected the binding of the compound in the ligand binding pocket and the intramolecular interaction network. We included SPs0871 without small compounds as a negative control in each screening plate. The difference between the Tm value for each compound and the highest negative control Tm value in the same plate was used as the activity value for each compound.
# DSF was performed on a CFX Connect Real-Time System (Bio-Rad, Hercules, CA, USA). The buffer was 1 × PBS, 5% DMSO except an experiment to assess the change of Tm value in a sugar concentration-dependent manner (Figure S1), in which DMSO was not added into the buffer. In the initial screening, the final concentration of the compounds was 100 µM and the concentration of SPs0871 was a 2 μM. One thousandth of the sample volume of SYPRO Orange Protein Gel Stain (5000 × concentrated in DMSO; Invitrogen, Waltham, MA, USA) was added, and samples containing 5 × SYPRO Orange were loaded onto 96-well PCR Plates (Bio-Rad) for measurement. The denaturation of protein was observed via fluorescence emitted from SYPRO Orange upon absorption to the exposed hydrophobic surface.
# SPs0871 [4] = target: T1, SPs0871; experiment: SPR screening of direct binding to SPs0871 (Biacore 8K)
# Source text: In parallel, we conducted SPR screening to evaluate the direct binding of compounds to SPs0871. We immobilized SPs0871 on a sensor chip, flowed each compound to the chip in sequence, and evaluated the response for each compound. The response derived from maltotriose binding was designated as the positive control, with a relative value 100, and the response derived from the injection of running buffer was designated as the negative control, with a relative value 0. The molecular weight corrected value for each compound was used as the activity value.
# Direct binding of compounds to SPs0871 was examined using a Biacore 8 K instrument (Cytiva). SPs0871 was immobilized at 3500–5300 RU on the surface of a CM5 sensor chip (Cytiva) by the amine-coupling method according to the manufacturer’s instructions. The running buffer was PBS-T (PBS, 0.005% Tween 20), 5% DMSO. In the screening, the final concentration of each compound was 100 µM, and samples were injected at a flow rate of 30 μL min^–1 with a 30 s association time. To check the concentration dependency, a range of concentrations of the compounds (3.125–50 µM) were injected at a flow rate of 30 μL min^–1 with a 20 s association time and a 30 s dissociation time. […]
# [5] = test system: SPs0871 mutants (E146, K294, W256 mutated to alanine); experiment: MST binding to recombinant SPs0871 alanine mutants; parameters: species or system Streptococcus pyogenes
# Source text: To assess whether 95,186 competes with the natural ligand maltotriose in binding to SPs0871, we conducted MST analysis in the presence or absence of maltotriose. […] When we performed additional docking calculations using the Glide docking program (Schrodinger, New York, NY, USA) to identify hotspot residues for the compound binding, E146 and K294 were predicted to form hydrogen bonds and W256 was predicted to form van der Waals interactions during compound binding (Fig. 4B,C). We validated these predictions using recombinant SPs0871 mutants in which these residues were mutated to alanine.
# as §4
# as §1, with “The buffer was PBS-T (PBS, 0.005% Tween 20), 5% DMSO. A range of concentrations of compounds (15.3 nM to 500 µM) was tested.” left out
# SSI-1 strain = experiment: Growth assay in CDM medium, SSI-1; type: cell-based, Streptococcus pyogenes; conditions: 100 µM compound, 0.5% maltotetraose plus 0.1% glucose
# Procedure: as §2, §3
Compound,concentration-dependent response by MST (SPs0871 [1]),Kd (SPs0871 [1]) [µM],GAS growth (S. pyogenes strain JRS4; 100 µM compound),concentration-dependent response changes by MST with MalE1 (MalE1),further results
Cc1nn2c(-c3cccc(NC(=O)c4ccco4)c3)nnc2c2ccccc12 [95186d],concentration-dependent response change,,,,initial optical density at 600 nm (OD600) values (S. pyogenes strain JRS4; 100 µM in CDM with maltotetraose): high because of aggregation of the compounds in the medium as well as bacterial growth
Cc1nn2c(-c3cccc(NC(=O)CN4CCOCC4)c3)nnc2c2ccccc12 [95186b],concentration-dependent response change,67.1,suppressed GAS growth,No concentration-dependent response changes were detected,"concentration-dependent response by SPR (derivatives, cross-validation) (SPs0871 [2]): observed concentration-dependent responses"
Cc1nn2c(-c3cccc(NC(=O)COc4ccccc4)c3)nnc2c2ccccc12 [95186f],no change,,,,
CCC(=O)Nc1cccc(-c2nnc3c4ccccc4c(C)nn23)c1 [95186c],concentration-dependent response change,71.7,suppressed GAS growth,No concentration-dependent response changes were detected,"concentration-dependent response by SPR (derivatives, cross-validation) (SPs0871 [2]): observed concentration-dependent responses"
Cc1nn2c(-c3cccc(NC(=O)c4ccccc4)c3)nnc2c2ccccc12 [95186e],no change,,,,
O=C(CN1CCCCC1)Nc1cccc(C(=O)Nc2cccc(C(F)(F)F)c2)c1 [95186h],no change,,,,
Cc1ccc(-c2nnc3c4ccccc4c(C)nn23)cc1NC(=O)CN1CCCCC1 [95186a],no change,,,,
maltotriose [reference compound],,6.2,,,"Kd (SPs0871 [2]; maltotriose 0.039–20 µM, calculated from Scatchard plots, read-out: dissociation constant (KD) by SPR): 0.61 µM; increase of the melting temperature of SPs0871 (SPs0871 [3]; DSF, 10 µM maltotriose): 1.2 °C"
Cc1nn2c(-c3cccc(NC(=O)CSc4nc5ccccc5o4)c3)nnc2c2ccccc12 [95186g],no change,,,,
Cc1nn2c(-c3cccc(NC(=O)CN4CCCCC4)c3)nnc2c2ccccc12 [compound 95186],showed a concentration-dependent response,44.7,suppressed GAS growth,No concentration-dependent response changes were detected,"MST response in the presence of maltotriose (competition) (SPs0871 [1]; 60 µM maltotriose): concentration-dependent response disappeared; growth inhibition potential compared among compounds (S. pyogenes strain JRS4; 100 µM compound): highest growth inhibition potential; concentration dependence of growth suppression (S. pyogenes strain JRS4; JRS4, maltotetraose medium): concentration dependent above the KD value concentration; bactericidal or bacteriostatic effect (S. pyogenes strain JRS4; JRS4 exposed to compound transferred into THY medium, final OD600 0.01): bacteriostatic action; ΔTm at 100 µM (SPs0871 [3]; 100 µM compound, 2 µM SPs0871, hit criterion > 0.4 °C, read-out: DSF activity value (Tm with compound minus highest negative control Tm in the same plate)): 0.6 °C; SPR activity value (molecular weight corrected relative response) (SPs0871 [4]; 100 µM compound, maltotriose response = 100, running buffer = 0, hit criterion ≥ 60): 162; concentration dependence of the binding by SPR (SPs0871 [4]; 3.125–50 µM, three independent experiments): concentration-dependent increase in response was reproducibly observed; MST response change upon binding to SPs0871 alanine mutants [5]: Only the W256A mutation attenuated the response change upon the binding; maltodextrin dependent growth of SSI-1 (SSI-1 strain): suppressed the maltodexitrin dependent growth of SSI-1"
